Measurements reported in patent publication US10344002B2, “Compositions and methods for treating metabolic disorders” (NuSirt Sciences, Inc., priority 2016, dated 2019).

Assays:
HepG2 liver cells = assay: Lipid accumulation (Oil Red Staining) in HepG2 liver cells induced with high glucose plus insulin; format: cell-based; settings: 48 hours
Procedure: Cell Culture: HepG2 liver cells were seeded with 80,000 cells per well on 24-well tissue culture plates in low glucose (5 mM) DMEM containing 10% FBS and antibiotics. After 24 hours of attachment, lipid accumulation was induced by incubating cells with high glucose (25 mM) DMEM (10% FBS, 1% Pen-Strep) plus 100 nM insulin for 48 hours. Cells were then treated with indicated concentrations of Compound 2 for an additional 48 hours.
(§1) Compound 2 was dissolved in 100% DMSO to a stock concentration of 100 mM. This stock was further diluted to indicated concentrations in DMEM media.
(§2) Lipid accumulation (Oil Red Staining): HepG2 liver cells were seeded and treated as described above. After 48 hours of treatment with Compound 2, lipid accumulation in HepG2 was measured via Oil Red Staining. Cells were washed with phosphate buffered saline (PBS) once, then cells were fixated with 10% formalin for 1 hour. After removal of the formalin, cells were washed with ddH2O twice, then washed with 60% isopropanol. Cells were dried completely. Cells were stained with Oil Red working solution (˜5 mM) for 25 minutes, then immediately washed with ddH2O four times, then dried completely again. Oil Red dye was eluted with 100% isopropanol and absorbance was read at 500 nm. Unstained cells plus isopropanol was used as a blank and subtracted from all readings. Data are represented as mean±SEM for each treatment group.

3T3L1 adipocytes [1] = assay: Lipid accumulation (Oil Red Staining) in 3T3L1 adipocytes; format: cell-based; settings: 72 hours; for Oil Red absorbance (FIG. 11): control approximately 0.66
Procedure: Cell Culture: 3T3L1 adipocytes were seeded with 80,000 cells per well on 24-well tissue culture plates in high glucose (25 mM) DMEM containing 10% FBS and antibiotics. After reaching confluency (3 days), cells were induced to differentiate with a standard differentiation media (DM2-L1, Zen-Bio Inc., NC) for 3 days, then cells were maintained in DMEM (10% FBS, 1% penicillin-streptomycin) for another 8 days to induce lipid accumulation. Cells were then treated with indicated concentration of Compound 2 for 72 hours.
as §1
as §2, with “3T3L1 adipocytes” for “HepG2 liver cells”, “72” for “48”, “adipocytes” for “HepG2”

C. elegans = assay: Lipid accumulation (Oil Red Staining) in C. elegans; format: in vivo; settings: for lipid accumulation, fold change of control (FIG. 12): 3 days, absorbance normalized to worm number
Procedure: (§3) C. elegans culture: Synchronized L1 wild-type worms were transferred to NGM agar plates with the following treatments until adulthood (3 days): 1. control NGM plates, 2. NGM plate with 10 nM Compound 2 added to E. coli suspension, 3. NGM plate with 100 nM Compound 2 added to E. coli suspension.
Lipid accumulation (Oil Red Staining): Worms were washed off the plate with 2×5 ml PBS and collected in centrifuge tubes. The tubes were centrifuged at 1000 g for 30 seconds, then the supernatant was removed and the worm pellet was washed again with 5 ml PBS. Then the supernatant was discarded except approximately 400 ul, to which 200 ul of 10% paraformaldehyde was added and then gently rocked for 60 minutes at room temperature. To remove the paraformaldehyde, worms were centrifuged at 1500 g for 30 sec, then washed 1× with 5 ml PBS, centrifuged and supernatant removed except 400 ul, to which 600 ul of 100% isopropanol was added and mixed by inverting the tube and incubated for 15 minutes at room temperature. After centrifugation, the isopropanol was removed, then 1 ml of 60% filtered OilRed (4 vol ddH2O and 6 vol of OilRed stock (OilRed stock: dilute 0.35 g OilRed O (Sigma Cat #0-0625, FW 408.5) in 100 ml 100% isopropanol, stirred overnight, then filtered (0.2 um) and stored at room temperature), let stand for 15 to 20 min and filter with 0.2 um) was added. Worms were rotated on shaker overnight at room temperature and protected from light. Next day, the worms were centrifuged at 1200 g for 30 seconds, the dye was removed, and worms were washed 4 times with ddH2O. At last washing step, 2 ml of ddH2O was added and worms were counted under microscope in 3×20 ul drops. The worm number was multiplied by 100 to calculate the total worm number for normalization of the absorbance data. Then worm solution was centrifuged again, supernatant removed and 300 ul of 100% isopropanol was added to elute the OilRed. 100 ul aliquots of OilRed-isopropanol in transferred to 96-well plate and the absorbance was measured at 500 nm.

3T3L1 adipocytes [2] = assay: Fatty acid oxidation (oxygen consumption rate) in 3T3L1 adipocytes; format: cell-based; settings: for baseline OCR, area under the curve (FIG. 10A): control approximately 6000; for palmitate induced OCR, area under the curve (FIG. 10B): control approximately 52000
Sir2 = assay: Western blot, Sir2 protein expression in C. elegans treated from L1 stage to adulthood; format: in vivo; settings: for Sir2 protein expression, fold change of control (FIG. 7A): 3 days
Procedure: as §3
Western blots: Phospho-AMPK, AMPK, Phospho-ACC, ACC antibodies were obtained from Cell Signaling (Danvers, Mass.). Sir2 antibody was obtained from MyBiosource (San Diego, Calif.). Protein levels of cell extracts were measured by BCA kit (Thermo Scientific, Pittsburgh, Pa.). For Western blot, 10-50 μg protein was resolved on 4-15% gradient polyacrylaminde gels (Criterion precast gel, Bio-Rad Laboratories, Hercules, Calif.), transferred to either PVDF or nitrocellulose membranes, incubated in blocking buffer (3% BSA or 5% non-fat dry milk in TBS) and then incubated with primary antibody (1:1000 dilution), washed and incubated with horseradish peroxidase- or fluorescence-conjugated secondary antibody (1:10000 dilution). Visualization was conducted using BioRad ChemiDoc instrumentation and software (Bio-Rad Laboratories, Hercules, Calif.) and band intensity was assessed using Image Lab 4.0 with correction for background and loading controls.

## CC(C)C[C@@H]1NC(N=C(N)N)=NC1=O [Compound 2]
HepG2 liver cells; HepG2, all tested concentrations (1 nM to 10 uM)
  effect on fat accumulation: significantly reduced
HepG2 liver cells; HepG2, high glucose (25 mM) DMEM plus 100 nM insulin, 10 nM, p<0.025
  reduction of fat accumulation (highest effect): up to 40%
3T3L1 adipocytes [1]; 1 nM, 500 nm
  Oil Red absorbance (FIG. 11): approximately 0.57
3T3L1 adipocytes [1]; 10 nM, 500 nm
  Oil Red absorbance (FIG. 11): approximately 0.58
3T3L1 adipocytes [1]; 50 nM, 500 nm
  Oil Red absorbance (FIG. 11): approximately 0.53
3T3L1 adipocytes [1]; 100 nM, 500 nm
  Oil Red absorbance (FIG. 11): approximately 0.54
3T3L1 adipocytes [1]; 200 nM, 500 nm
  Oil Red absorbance (FIG. 11): approximately 0.51
3T3L1 adipocytes [1]; 350 nM, 500 nm
  Oil Red absorbance (FIG. 11): approximately 0.55
3T3L1 adipocytes [1]; 500 nM
  Oil Red absorbance (FIG. 11): approximately 0.68
3T3L1 adipocytes [1]; 50 to 350 nM, p<0.05
  reduction in lipid accumulation (plateau effect): up to 23%
3T3L1 adipocytes [1]; higher concentration (500 nM)
  lipid reducing effect: lost
C. elegans; 10 nM
  lipid accumulation, fold change of control (FIG. 12): approximately 0.45 fold change
C. elegans; 100 nM
  lipid accumulation, microscopic images (FIG. 13B): significant reduction
  lipid accumulation, fold change of control (FIG. 12): approximately 0.35 fold change
C. elegans; 100 nM, L1 stage to adulthood (3 days), p<0.05
  reduction in lipid accumulation: 60%
3T3L1 adipocytes [2]; 10 nM, 48 hours of treatment
  increase of baseline OCR: 50%
  increase of palmitate stimulated OCR: 43%
3T3L1 adipocytes [2]; 10 nM
  baseline OCR, area under the curve (FIG. 10A): approximately 7900 pMoles/min
  palmitate induced OCR, area under the curve (FIG. 10B): approximately 78000 pMoles/min
3T3L1 adipocytes [2]; 100 nM, compared with 10 nM
  effect on baseline and palmitate stimulated OCR: smaller effect
3T3L1 adipocytes [2]; 100 nM
  baseline OCR, area under the curve (FIG. 10A): approximately 7000 pMoles/min
  palmitate induced OCR, area under the curve (FIG. 10B): approximately 62000 pMoles/min
Sir2; 10 nM
  Sir2 protein expression, fold change of control (FIG. 7A): approximately 1.65 fold change
Sir2; 100 nM
  Sir2 protein expression, fold change of control (FIG. 7A): approximately 1.5 fold change
Sir2; L1 stage to adulthood (3 days), p=0.03
  increase in Sir2 protein expression: up to 60%
